Where “and” joins values, the source holds several entries; their conditions need not be identical. Identical values can stand only once.
Tested on: CD2F1 mice, P1798 lymphosarcoma sc, tumor weight T/C
Assay: NCI In Vivo Anticancer Drug Screen. Data for tumor model P1798 Lymphosarcoma (subcutaneous) in CD2F1 (CDF1) mice
Conditions: endpoint: mean tumor weight, higher = larger tumour
Procedure: The antitumor activity of compounds was measured in mice bearing transplantable tumors. Survival or tumor size were measured and the results are expressed as the measurement made in the treated group (T) divided by the measurement made in the vehicle treated control group (C). The tumor model used in this assay is P1798 Lymphosarcoma (subcutaneous) in CD2F1 (CDF1) mice

[1] = dose: 125.0 mg/kg/injection, schedule: Q01DX010 (ip), vehicle: saline
[2] = dose: 250.0 mg/kg/injection, schedule: Q01DX010 (ip), vehicle: saline
[3] = dose: 500.0 mg/kg/injection, schedule: Q01DX010 (ip), vehicle: saline

N=C(N)c1ccc(Nc2ccc(C(=N)N)cc2)cc1
T/C (dose: 1.5 mg/kg/injection, schedule: Q01DX010 (ip), vehicle: saline): 85 % of control | T/C (dose: 3.0 mg/kg/injection, schedule: Q01DX010 (ip), vehicle: saline): 82 % of control | T/C (dose: 6.0 mg/kg/injection, schedule: Q01DX010 (ip), vehicle: saline): 119 % of control | T/C (dose: 12.0 mg/kg/injection, schedule: Q01DX010 (ip), vehicle: saline): 77 % of control

O=c1cn[nH]c(=O)[nH]1
T/C (dose: 62.5 mg/kg/injection, schedule: Q01DX010 (ip), vehicle: saline): 111 % of control and 89 % of control | T/C [1]: 97 % of control | T/C [2]: 62 % of control and 80 % of control | T/C [3]: 80 % of control

C[C@]12CCC(=O)C=C1CC[C@H]1[C@@H]3CC[C@@]4(OCC4=O)[C@@]3(C)C[C@H](O)[C@@]12F
T/C (dose: 10.0 mg/kg/injection, schedule: Q01DX010 (sc), vehicle: steriod suspending solution): 59 % of control | T/C (dose: 20.0 mg/kg/injection, schedule: Q01DX010 (sc), vehicle: steriod suspending solution): 43 % of control | T/C (dose: 40.0 mg/kg/injection, schedule: Q01DX010 (sc), vehicle: steriod suspending solution): 48 % of control | T/C (dose: 80.0 mg/kg/injection, schedule: Q01DX010 (sc), vehicle: steriod suspending solution): 16 % of control | T/C (dose: 160.0 mg/kg/injection, schedule: Q01DX010 (sc), vehicle: steriod suspending solution): 7 % of control | T/C (dose: 320.0 mg/kg/injection, schedule: Q01DX010 (sc), vehicle: steriod suspending solution): 1 % of control

CCOC(N)=O
T/C [1]: 95 % of control | T/C [2]: 64 % of control | T/C [3]: 23 % of control

CC(=O)OCC(=O)[C@@]1(O)CC[C@H]2[C@@H]3CCC4=CC(=O)[C@H](C)C[C@]4(C)[C@H]3[C@@H](O)C[C@@]21C
T/C (dose: 0.78 mg/kg/injection, schedule: Q01DX Z (sc), vehicle: steriod suspending solution): 111 % of control | T/C (dose: 1.56 mg/kg/injection, schedule: Q01DX Z (sc), vehicle: steriod suspending solution): 101 % of control | T/C (dose: 3.13 mg/kg/injection, schedule: Q01DX Z (sc), vehicle: steriod suspending solution): 108 % of control | T/C (dose: 6.25 mg/kg/injection, schedule: Q01DX Z (sc), vehicle: steriod suspending solution): 101 % of control and 88 % of control | T/C (dose: 12.5 mg/kg/injection, schedule: Q01DX005 (sc), vehicle: steriod suspending solution): 61 % of control | T/C (dose: 12.5 mg/kg/injection, schedule: Q01DX010 (sc), vehicle: steriod suspending solution): 33 % of control and 50 % of control | T/C (dose: 12.5 mg/kg/injection, schedule: Q01DX Z (sc), vehicle: steriod suspending solution): 96 % of control | T/C (dose: 25.0 mg/kg/injection, schedule: Q01DX005 (sc), vehicle: steriod suspending solution): 27 % of control | T/C (dose: 25.0 mg/kg/injection, schedule: Q01DX Z (sc), vehicle: steriod suspending solution): 73 % of control | T/C (dose: 25.0 mg/kg/injection, schedule: Q02DX010 (sc), vehicle: steriod suspending solution): 96 % of control | T/C (dose: 25.0 mg/kg/injection, schedule: Q03DX004 (sc), vehicle: steriod suspending solution): 65 % of control | T/C (dose: 50.0 mg/kg/injection, schedule: Q01DX005 (sc), vehicle: steriod suspending solution): 9 % of control | T/C (dose: 50.0 mg/kg/injection, schedule: Q01DX Z (sc), vehicle: steriod suspending solution): 76 % of control | T/C (dose: 50.0 mg/kg/injection, schedule: Q02DX010 (sc), vehicle: steriod suspending solution): 100 % of control | T/C (dose: 50.0 mg/kg/injection, schedule: Q03DX004 (sc), vehicle: steriod suspending solution): 17 % of control | T/C (dose: 100.0 mg/kg/injection, schedule: Q01DX005 (sc), vehicle: steriod suspending solution): 4 % of control | T/C (dose: 100.0 mg/kg/injection, schedule: Q02DX010 (sc), vehicle: steriod suspending solution): 108 % of control | T/C (dose: 100.0 mg/kg/injection, schedule: Q03DX004 (sc), vehicle: steriod suspending solution): 2 % of control

CN(C)c1nc(N(C)C)nc(N(C)C)n1
T/C (dose: 18.8 mg/kg/injection, schedule: Q01DX010 (ip), vehicle: saline): 104 % of control and 87 % of control | T/C (dose: 75.0 mg/kg/injection, schedule: Q01DX010 (ip), vehicle: saline): 68 % of control and 82 % of control | T/C (dose: 150.0 mg/kg/injection, schedule: Q01DX010 (ip), vehicle: saline): 26 % of control

c1ccc(CSc2ncnc3nc[nH]c23)cc1
T/C (dose: 12.5 mg/kg/injection, schedule: Q01DX010 (ip), vehicle: saline): 70 % of control and 82 % of control | T/C (dose: 25.0 mg/kg/injection, schedule: Q01DX010 (ip), vehicle: saline): 83 % of control and 85 % of control | T/C (dose: 100.0 mg/kg/injection, schedule: Q01DX010 (ip), vehicle: saline): 13 % of control

O=C(Nc1ccc(C2=NCCN2)cc1)c1ccc(C(=O)Nc2ccc(C3=NCCN3)cc2)cc1
T/C (dose: 16.0 mg/kg/injection, schedule: Q01DX010 (ip), vehicle: saline): 76 % of control | T/C (dose: 32.0 mg/kg/injection, schedule: Q01DX010 (ip), vehicle: saline): 77 % of control | T/C (dose: 64.0 mg/kg/injection, schedule: Q01DX010 (ip), vehicle: saline): 73 % of control | T/C (dose: 128.0 mg/kg/injection, schedule: Q01DX010 (ip), vehicle: saline): 47 % of control

From PubChem BioAssay AID268 (DTP/NCI, 2004)
